Test results as given in patent US20260131009A1, “BIFUNCTIONAL PI3K-ALPHA INHIBITORS AND USES THEREOF” (Relay Therapeutics, Inc., priority 2021, published 2026).

Assays:
PI3Kα = PI3Kα (Homo sapiens, UniProt P42336, H1047R); assay: ADP-Glo IC50 assay; format: biochemical; conditions: class symbols; key not given
MCF10A = MCF10A IC50 assay; format: cell-based; conditions: Homo sapiens, MCF-10A; class symbols; key not given
Outline: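 MCF10A cells overexpressing hotspot PIK3CA mutations were seeded at 5,000 per well in supplemented DMEM/F12 and adhered overnight (37 °C, 5% CO₂). Compounds were added acoustically as 12-dose 1:3 series, in duplicate, for 2 hours. Cells were lysed 60 min, then incubated 4 hours at room temperature with CisBio phospho-AKT (Ser473) HTRF antibodies and read on an Envision 2105. IC₅₀ for AKT phosphorylation came from Genedata software and was reported as binned categories.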

PI3Kα, sequence (P42336 whole entry H1047R): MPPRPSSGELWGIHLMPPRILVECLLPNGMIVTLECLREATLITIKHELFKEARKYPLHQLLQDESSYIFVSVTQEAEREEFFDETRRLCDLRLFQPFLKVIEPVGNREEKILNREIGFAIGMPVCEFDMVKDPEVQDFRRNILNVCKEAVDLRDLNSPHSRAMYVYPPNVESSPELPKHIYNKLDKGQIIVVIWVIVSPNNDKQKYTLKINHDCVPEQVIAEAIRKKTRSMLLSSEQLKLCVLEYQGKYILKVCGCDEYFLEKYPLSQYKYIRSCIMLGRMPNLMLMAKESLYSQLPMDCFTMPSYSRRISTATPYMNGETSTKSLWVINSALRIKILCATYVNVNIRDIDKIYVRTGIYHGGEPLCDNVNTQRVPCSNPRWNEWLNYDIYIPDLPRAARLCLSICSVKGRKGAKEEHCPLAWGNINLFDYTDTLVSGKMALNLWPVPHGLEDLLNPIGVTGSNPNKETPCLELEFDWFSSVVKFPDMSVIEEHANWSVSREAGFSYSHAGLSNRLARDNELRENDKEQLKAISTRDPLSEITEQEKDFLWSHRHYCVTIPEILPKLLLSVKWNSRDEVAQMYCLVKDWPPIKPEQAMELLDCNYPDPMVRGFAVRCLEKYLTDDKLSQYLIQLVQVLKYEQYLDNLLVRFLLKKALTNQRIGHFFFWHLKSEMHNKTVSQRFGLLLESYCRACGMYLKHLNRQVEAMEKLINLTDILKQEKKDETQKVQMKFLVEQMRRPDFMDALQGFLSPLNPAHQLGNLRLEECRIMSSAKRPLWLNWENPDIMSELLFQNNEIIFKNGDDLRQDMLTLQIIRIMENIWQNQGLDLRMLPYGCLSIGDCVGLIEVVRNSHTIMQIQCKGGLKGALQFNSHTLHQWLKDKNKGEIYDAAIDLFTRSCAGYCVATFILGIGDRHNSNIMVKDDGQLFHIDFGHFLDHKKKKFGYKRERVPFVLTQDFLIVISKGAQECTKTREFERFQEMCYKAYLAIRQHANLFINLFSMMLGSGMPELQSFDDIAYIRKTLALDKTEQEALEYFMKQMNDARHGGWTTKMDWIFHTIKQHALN
PI3Kα, sequence (P27986 whole entry partner): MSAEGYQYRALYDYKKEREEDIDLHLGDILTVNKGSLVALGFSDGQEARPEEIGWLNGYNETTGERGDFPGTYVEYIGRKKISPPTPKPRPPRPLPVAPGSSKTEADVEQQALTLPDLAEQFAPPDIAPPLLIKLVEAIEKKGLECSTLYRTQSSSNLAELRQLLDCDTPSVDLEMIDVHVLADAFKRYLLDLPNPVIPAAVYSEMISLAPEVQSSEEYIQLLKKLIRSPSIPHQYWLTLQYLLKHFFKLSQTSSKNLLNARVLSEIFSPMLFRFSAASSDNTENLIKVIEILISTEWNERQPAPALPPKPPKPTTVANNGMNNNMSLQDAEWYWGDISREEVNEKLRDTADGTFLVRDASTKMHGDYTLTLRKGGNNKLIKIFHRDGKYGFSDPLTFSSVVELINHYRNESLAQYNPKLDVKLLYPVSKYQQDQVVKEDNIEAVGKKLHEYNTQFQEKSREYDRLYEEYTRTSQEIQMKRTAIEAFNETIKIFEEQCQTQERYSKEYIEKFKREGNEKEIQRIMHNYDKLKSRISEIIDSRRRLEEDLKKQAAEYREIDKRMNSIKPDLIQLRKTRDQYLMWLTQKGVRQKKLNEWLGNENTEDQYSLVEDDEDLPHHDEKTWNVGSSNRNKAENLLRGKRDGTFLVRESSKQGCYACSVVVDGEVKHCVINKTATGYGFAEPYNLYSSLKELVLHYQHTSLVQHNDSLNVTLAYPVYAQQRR

SMILES | IC50 (PI3Kα) | IC50 (MCF10A)
Cc1cc(Br)c2oc(N3CCN(C(=O)CCCCCCCCCNC(=O)c4cnc(Nc5ccccc5C)c(NC(=O)c5csc6ccccc56)c4)CC3)cc(=O)c2c1 [Example I-82] | 100 to 500 nM | 10000 to 36000 nM
Cc1cc(Br)c2oc(N3CCN(C(=O)CCCCCCCNC(=O)c4cnc(Nc5ccccc5C)c(NC(=O)c5csc6ccccc56)c4)CC3)cc(=O)c2c1 [Example I-87] | 100 to 500 nM | < 1000 nM
